Measured values reported in patent publication US20120070445A1, “BRAIN-DERIVED GONADOTROPINS AND COGNITION” (priority 2006, published 2012).

Assays:
[1] = Body weight 3 months post-surgery + replacement + drug treatment
Description: In addition we added a SHAM ovariectomized group that received saline and a placebo pallet (n=10). During the last two weeks of the study all animals have been tested for Y-maze and Morris Water Maze performance.

C57/B6 female mice [2] = test: Y-maze in ovariectomized mice with or without estrogen replacement; format: in vivo; details: OVX mice
C57/B6 female mice [3] = test: Morris Water Maze in ovariectomized mice (training and probe trial); format: in vivo; details: for length of time taken to locate the invisible platform across days (rescue of OVX-associated cognitive decline): OVX mice, three training days
Experimental: (Significance indicated by: *=P+S vs E+S; #=P+S vs P+L; $=P+S vs SHAM; %=P+S vs E+L; at p<0.05).
Additionally, to further determine the memory function and training success in the animals we measured the capacity of the animals to retain the information learned using a probe trial. In this regard, at the end of the last day of training we removed the platform and let the animals swim for 1 minute.

Tg2576 mice [4] = details: APP transgenic mice, recent study; cited from earlier work
AD patients = details: high doses, completed phase II trial; cited from earlier work
Tg2576 mice [5] = test: Y-maze performance in aged Tg2576 mice; format: in vivo; details: 21 month old Tg2576 female mice, 3 months treatment vs placebo/saline, p<0.01
Aβ [6] = details: APP transgenic mice, recent study; cited from earlier work
LH = test: Serum LH and pituitary LHβ mRNA after leuprolide acetate; format: in vivo, Tg2576 mice
Aβ [7] = test: Hippocampal Aβ burden (% area stained) in Tg2576 mice; format: in vivo; details: vs saline-treated, p<0.05
Description: Scale bar, 200 μm. […] In this initial study we used aged animals to 1) circumvent the estrogen issue, since aged mice, like humans show estropause and 2) to examine the effects of LH ablation once the disease is well established.

Estrogen
Body weight ([1]; OVX + Estrogen, Saline, 3 months post-surgery): 23.5
body weight of OVX+estrogen replaced group compared with SHAM ([1]; irrespective of drug treatment): not different from the SHAM operated group
Y-maze performance, estrogen-replaced vs placebo replaced (C57/B6 female mice [2]; saline-treated, t=1.841, p=0.07): strong trend
length of time taken to locate the invisible platform across days (rescue of OVX-associated cognitive decline) (C57/B6 female mice [3]): rescued by estrogen replacement

CCNC(=O)[C@@H]1CCCN1C(=O)[C@H](CCCNC(=N)N)NC(=O)[C@H](CC(C)C)NC(=O)[C@@H](CC(C)C)NC(=O)[C@H](Cc1ccc(O)cc1)NC(=O)[C@H](CO)NC(=O)[C@H](Cc1c[nH]c2ccccc12)NC(=O)[C@H](Cc1c[nH]cn1)NC(=O)[C@@H]1CCC(=O)N1 [leuprolide acetate]
Y-maze performance (Tg2576 mice [4]): improves Y-maze performance
cognitive impairment and activities of daily living (AD patients): stabilization in cognitive impairment and activities of daily living
cognitive decline (Y-maze % alternations, change from baseline) (Tg2576 mice [5]): significantly attenuates cognitive decline
amyloid-β load in the hippocampus (Aβ [6]): decreases amyloid-β load
serum LH (LH; Tg2576 mice, vs saline, P<0.02): significant decline in serum LH
LHβ mRNA expression in the pituitary (LH; mice, 6 and 8 week treatment vs saline): clear decrease in the expression of LHβ mRNA
Y-maze performance (C57/B6 female mice [2]; leuprolide acetate 7.5 mg/kg for 3 months vs saline, specific to placebo replaced group (p=0.005)): significantly improved Y-maze performance
length of time taken to locate the invisible platform across days (rescue of OVX-associated cognitive decline) (C57/B6 female mice [3]): as effective as estrogen in rescuing OVX-associated cognition decline
learning rate in Morris Water Maze (C57/B6 female mice [3]; independent of replacement regimen, vs saline, p=0.027): learned at a faster rate
latency to enter NE quadrant, probe trial (C57/B6 female mice [3]; regardless of replacement regimen, 0.041): entered that quadrant earlier
distance swam in NE quadrant, probe trial (C57/B6 female mice [3]; regardless of replacement regimen, p=0.003): swam longer distances
number of platform crossings, probe trial (C57/B6 female mice [3]; regardless of replacement regimen, p=0.004): crossed it more times
latency to enter platform location, probe trial (C57/B6 female mice [3]; regardless of replacement regimen, p=0.005): crossed the invisible platform region more earlier
Aβ burden, % area stained in the entire hippocampus (Aβ [7]): significantly lower
